Test results from patent US20220332758A1, “PEPTIDE-BASED COMPOSITIONS AND METHODS FOR TREATING ALZHEIMER'S DISEASE” (Board of Regents, The Universityof Texas System, priority 2019, published 2022).
“Also recorded” adds a separate entry of the source.

What was measured:
[1] = biological target: T1, latent 20S core proteasome, PGPH peptidase (Homo sapiens, UniProt P25787+P60900); test: Post glutamyl peptide hydrolyzing (PGPH) peptidase activity of the core proteasome; assay type: biochemical
T1 construct: purified from erythrocytes; purchased Boston Biochem, Inc. or Enzo Life Sciences, Inc; host or cells: human erythrocytes
Experimental: Determination of Proteasome Activity. Human housekeeping core (20S) proteasome purified from erythrocytes was purchased from Boston Biochem, Inc. (Cambridge, Mass.) or from Enzo Life Sciences, Inc. (Farmingdale, N.Y.). Multiple batches of the proteasomes were used and performed reproducibly. The stock proteasome was diluted to 0.2 mg/mL working solution in “dilution buffer” (50 mM Tris/HCl, pH 8, 20% glycerol). The following model peptide substrates, releasing fluorescent 7-amino-4-methylcoumarin (AMC) reporter group after cleavage, were used: succinyl-LeuLeuValTyr-AMC (SEQ ID NO: 14) (for the ChT-L peptidase; SucLLVY-AMC; Bachem Bioscience Inc., Philadelphia, Pa.), butoxycarbonyl-LeuArgArg-AMC (T-L; Bachem Bioscience Inc., Philadelphia, Pa.) and carbobenzoxy-LeuLeuGlu-AMC (PGPH; Enzo Life Sciences Inc., Farmingdale, N.Y.). […] After mixing, the plate was transferred to a Fluoroskan Ascent plate reader (Thermo Fisher Scientific Inc., Waltham, Mass.) for 1 h (37° C.), with fluorescence readouts once per minute. […] The reaction rates were calculated from a linear segment of kinetic curves constructed from measurements in 1-min intervals. Reaction rates were calculated using a linear fit performed with the Slope Analyser and Enzyme Kinetics applications launched within Origin Pro 2019 (OriginLab Corporation, Northampton, Mass.). […]

Stability in human serum = assay type: in vitro ADME
human 26S proteasome = biological target: T2, human 26S proteasome (Homo sapiens, UniProt P25787+P60900); test: Chymotrypsin-like activity of purified human 26S proteasome, Suc-LLVY-MCA substrate; assay type: biochemical; details: in vitro
T2 construct: purchased Boston Biochemicals (Boston Biochem)

| SMILES | effect on PGPH activity [1] | half-life (Stability in human serum) [h] | activation of 26S proteasome (in words) (human 26S proteasome) | stability in serum (in words) (Stability in human serum) |
| --- | --- | --- | --- | --- |
| N=C(N)NCCCC(NC(=O)CN)C(=O)NC(CCCCN)C(=O)NC(CCCCN)C(=O)NC(CCCNC(=N)N)C(=O)NC(CCCNC(=N)N)C(=O)NC(CCC(N)=O)C(=O)N1Cc2ccccc2C[C@H]1C(=O)N1C(C(=O)NC(CCCNC(N)N)C(=O)N2CCCC2C(=O)NC(CO)C(=O)O)CC2CCCCC21 (stereo partly drawn) [(5), GRKKRRQ-TOD-RPS] | weak inhibitory effects; also recorded: did not seem to significantly affect | ~2 | strongly activate | – |
| NCCCCC(N)C(=O)NC(CCCCN)C(=O)NC(CCCCN)C(=O)Nc1cc(NC(=O)C(CCCCN)NC(=O)C(CCCCN)NC(=O)C(N)CCCCN)cc(C(=O)NC(CCCCN)C(=O)NC(CCCCN)C(=O)NC(CCCCN)C(=O)O)c1 (stereo not drawn) [(8)] | weak inhibitory effects; also recorded: did not seem to significantly affect | – | excellent activator | rapidly modified from triple-lysines to double-lysines |
